The results in this text go back to patent US10208066B2, “Imidazopyridazine compounds and their use” (HUTCHISON MEDIPHARMA LIMITED, priority 2014, dated 2019).

What all share (assay): Transcreener KINASE Assay, fluorescent determination of PI3K enzyme activity
Assay type in all cases: biochemical

The target of one test is PI3K-β (Homo sapiens, UniProt P42338). The settings on record: for inhibition at 1 µM: read-out: PI3K-β IH % (inhibition rate); for inhibition at 1 µM / PI3K-β IH % (inhibition rate): at 1 μM.
PI3K-β, sequence (P42338 whole entry, looked up): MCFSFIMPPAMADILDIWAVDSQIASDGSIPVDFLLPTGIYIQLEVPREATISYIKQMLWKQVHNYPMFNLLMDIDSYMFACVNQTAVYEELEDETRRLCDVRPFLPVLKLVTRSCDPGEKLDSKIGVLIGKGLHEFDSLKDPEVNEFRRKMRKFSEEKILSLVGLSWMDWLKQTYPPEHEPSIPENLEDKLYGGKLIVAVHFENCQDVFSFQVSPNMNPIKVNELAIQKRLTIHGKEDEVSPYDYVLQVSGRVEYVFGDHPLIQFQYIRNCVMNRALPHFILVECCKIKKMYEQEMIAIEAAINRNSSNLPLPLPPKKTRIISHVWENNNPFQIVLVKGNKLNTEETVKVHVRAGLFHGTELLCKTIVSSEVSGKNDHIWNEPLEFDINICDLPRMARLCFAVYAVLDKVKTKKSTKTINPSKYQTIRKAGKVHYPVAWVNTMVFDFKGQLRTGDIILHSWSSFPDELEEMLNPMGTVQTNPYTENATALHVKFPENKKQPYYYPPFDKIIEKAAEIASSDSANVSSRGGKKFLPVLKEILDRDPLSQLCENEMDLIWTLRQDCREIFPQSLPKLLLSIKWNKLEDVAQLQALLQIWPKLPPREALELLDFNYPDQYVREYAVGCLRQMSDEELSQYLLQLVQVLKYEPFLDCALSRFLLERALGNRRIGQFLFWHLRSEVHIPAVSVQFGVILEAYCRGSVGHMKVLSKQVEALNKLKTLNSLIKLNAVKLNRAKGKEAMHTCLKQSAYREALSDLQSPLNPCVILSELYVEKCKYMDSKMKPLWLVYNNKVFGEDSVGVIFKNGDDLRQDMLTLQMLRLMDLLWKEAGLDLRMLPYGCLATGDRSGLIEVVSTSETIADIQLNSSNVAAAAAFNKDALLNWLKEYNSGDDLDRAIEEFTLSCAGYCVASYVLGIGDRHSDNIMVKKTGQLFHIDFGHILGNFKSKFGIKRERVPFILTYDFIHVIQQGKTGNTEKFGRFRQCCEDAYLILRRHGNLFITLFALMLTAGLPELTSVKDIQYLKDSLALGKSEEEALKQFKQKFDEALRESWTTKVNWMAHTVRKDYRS
For the next test, the target named is PI3K-γ (p110γ) (Homo sapiens (Human), UniProt P48736). The conditions noted are these: for inhibition at 1 µM: read-out: PI3K-γ IH % (inhibition rate).
PI3K-γ (p110γ), sequence (P48736 whole entry, species assumed): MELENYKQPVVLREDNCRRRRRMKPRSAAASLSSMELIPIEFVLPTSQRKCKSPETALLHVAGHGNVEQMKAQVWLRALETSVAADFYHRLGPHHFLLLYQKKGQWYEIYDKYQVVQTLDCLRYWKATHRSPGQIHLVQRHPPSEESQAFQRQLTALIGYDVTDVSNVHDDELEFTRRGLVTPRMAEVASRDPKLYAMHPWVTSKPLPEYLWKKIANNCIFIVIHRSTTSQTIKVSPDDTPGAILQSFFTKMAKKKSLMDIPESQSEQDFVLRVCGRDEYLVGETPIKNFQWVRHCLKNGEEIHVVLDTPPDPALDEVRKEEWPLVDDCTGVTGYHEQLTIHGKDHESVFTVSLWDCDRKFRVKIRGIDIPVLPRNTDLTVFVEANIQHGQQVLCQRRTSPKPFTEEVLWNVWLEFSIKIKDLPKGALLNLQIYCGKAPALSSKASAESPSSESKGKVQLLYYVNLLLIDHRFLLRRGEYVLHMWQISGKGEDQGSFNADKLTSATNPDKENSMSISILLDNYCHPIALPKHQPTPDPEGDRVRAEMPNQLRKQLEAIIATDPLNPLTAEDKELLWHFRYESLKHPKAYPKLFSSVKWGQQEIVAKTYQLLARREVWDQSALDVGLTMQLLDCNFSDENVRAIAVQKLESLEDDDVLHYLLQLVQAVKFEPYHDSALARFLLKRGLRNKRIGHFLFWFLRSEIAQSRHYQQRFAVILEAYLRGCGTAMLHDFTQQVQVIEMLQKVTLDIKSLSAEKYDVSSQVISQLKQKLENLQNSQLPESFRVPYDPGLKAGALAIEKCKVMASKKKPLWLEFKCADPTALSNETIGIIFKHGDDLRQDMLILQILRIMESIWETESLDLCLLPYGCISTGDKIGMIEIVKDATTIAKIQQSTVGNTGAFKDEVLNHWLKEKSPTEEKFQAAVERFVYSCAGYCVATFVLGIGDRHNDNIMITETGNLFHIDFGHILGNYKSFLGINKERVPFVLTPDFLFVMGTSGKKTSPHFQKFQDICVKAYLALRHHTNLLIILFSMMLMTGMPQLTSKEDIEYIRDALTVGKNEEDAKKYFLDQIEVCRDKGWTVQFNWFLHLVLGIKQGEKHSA
The target of a further test is PI3K-δ (p110δ/p85α) (Homo sapiens (Human), UniProt O00329). The conditions noted are these: for inhibition at 1 µM: read-out: PI3K-δ IH % (inhibition rate).
PI3K-δ (p110δ/p85α), sequence (O00329 whole entry, species assumed): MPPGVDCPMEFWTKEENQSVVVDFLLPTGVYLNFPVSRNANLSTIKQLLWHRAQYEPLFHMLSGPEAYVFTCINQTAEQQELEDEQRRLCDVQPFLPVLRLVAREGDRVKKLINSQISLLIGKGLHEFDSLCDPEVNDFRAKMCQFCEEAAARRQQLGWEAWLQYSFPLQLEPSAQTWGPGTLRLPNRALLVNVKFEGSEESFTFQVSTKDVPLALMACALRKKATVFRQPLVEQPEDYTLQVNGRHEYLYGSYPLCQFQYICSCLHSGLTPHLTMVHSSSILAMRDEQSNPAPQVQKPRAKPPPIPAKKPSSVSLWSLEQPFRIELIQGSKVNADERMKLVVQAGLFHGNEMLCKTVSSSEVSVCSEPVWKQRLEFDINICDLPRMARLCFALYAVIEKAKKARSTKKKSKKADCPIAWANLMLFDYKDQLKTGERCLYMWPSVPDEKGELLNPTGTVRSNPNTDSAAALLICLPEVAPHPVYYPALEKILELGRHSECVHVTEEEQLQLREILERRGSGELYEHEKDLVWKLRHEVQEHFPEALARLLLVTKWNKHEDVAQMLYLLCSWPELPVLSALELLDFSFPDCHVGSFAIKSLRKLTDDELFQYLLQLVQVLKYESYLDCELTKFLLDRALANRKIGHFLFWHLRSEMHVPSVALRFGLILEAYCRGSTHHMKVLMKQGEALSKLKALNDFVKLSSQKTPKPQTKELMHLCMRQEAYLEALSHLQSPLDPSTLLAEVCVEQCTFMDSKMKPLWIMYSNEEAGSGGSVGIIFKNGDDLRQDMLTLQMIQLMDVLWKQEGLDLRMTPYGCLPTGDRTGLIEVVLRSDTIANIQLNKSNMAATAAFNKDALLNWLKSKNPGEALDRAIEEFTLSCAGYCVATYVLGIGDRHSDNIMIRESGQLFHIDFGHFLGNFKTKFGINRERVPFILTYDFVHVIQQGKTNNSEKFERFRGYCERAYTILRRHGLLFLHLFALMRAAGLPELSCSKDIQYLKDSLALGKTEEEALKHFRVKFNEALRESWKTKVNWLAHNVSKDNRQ
PI3K-δ (p110δ/p85α), sequence (P27986 whole entry partner, species assumed): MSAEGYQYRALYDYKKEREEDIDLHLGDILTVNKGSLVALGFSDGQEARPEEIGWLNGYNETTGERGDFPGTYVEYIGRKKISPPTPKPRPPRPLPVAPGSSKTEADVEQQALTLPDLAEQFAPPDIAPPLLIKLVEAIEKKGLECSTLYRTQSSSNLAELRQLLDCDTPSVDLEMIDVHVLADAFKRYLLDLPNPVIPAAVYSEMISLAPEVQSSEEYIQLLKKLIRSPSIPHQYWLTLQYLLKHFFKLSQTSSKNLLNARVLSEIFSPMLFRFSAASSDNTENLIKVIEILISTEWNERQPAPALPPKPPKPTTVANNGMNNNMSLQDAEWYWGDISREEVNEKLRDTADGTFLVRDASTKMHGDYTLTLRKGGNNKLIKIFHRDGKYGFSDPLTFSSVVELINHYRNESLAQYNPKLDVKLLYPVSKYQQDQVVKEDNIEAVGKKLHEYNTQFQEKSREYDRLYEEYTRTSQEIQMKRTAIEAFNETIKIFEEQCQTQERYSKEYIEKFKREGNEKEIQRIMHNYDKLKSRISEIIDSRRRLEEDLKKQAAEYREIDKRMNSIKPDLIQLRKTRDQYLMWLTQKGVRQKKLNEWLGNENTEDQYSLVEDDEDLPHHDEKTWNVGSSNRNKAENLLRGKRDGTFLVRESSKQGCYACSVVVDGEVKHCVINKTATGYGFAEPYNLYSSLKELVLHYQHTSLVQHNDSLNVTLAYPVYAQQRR

pIC50: −log10 of the molar value. Like-named read-outs stand apart in the source and are kept apart here.
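For PI3K-β IH % (inhibition rate) in this document: recombinant PI3K enzyme reaction, 80 min at room temperature, ADP formed detected by far-red competitive fluorescence polarization immunoassay, inhibition relative to ADP in 2% DMSO control wells.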
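For PI3K-γ IH % (inhibition rate) in this document: ADP produced by p110γ kinase reaction, 80 min at room temperature, detected by far-red fluorescence polarization immunoassay, inhibition relative to 2% DMSO control wells.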
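For PI3K-δ IH % (inhibition rate) in this document: ADP formed by the kinase detected via far-red competitive fluorescence polarization immunoassay after 80 min room-temperature reaction, inhibition relative to 2% DMSO wells.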

Method for PI3K-β: (§1) It is a universal, homogenous, high throughput screening (HTS) technology using a far-red, competitive fluorescence polarization immunoassay based on the detection of ADP to monitor the activity of enzymes that catalyze group transfer reactions. […] The reaction mixture was added into desired wells of a 96-well plate. The plate was sealed and incubated for 80 min at room temperature. • 2) Next, 25 uL ADP detection mix was added into each well. The plate was sealed again and incubated for 60 min at room temperature. Then fluorescence polarization was measured by Tecan Infinite F500 Reader.
(§2) Data was analyzed and IC50 values were generated using the add-in software for Microsoft Excel, Xlfit™ (version 5.3).
(§3) Inhibition rates were calculated as follow: IH %=(ADP amount under 2% DMSO well−ADP amount under test compound well)/ADP amount under 2% DMSO well×100%.
Method for PI3K-γ (p110γ): as §1, §2, §3
Method for PI3K-δ (p110δ/p85α): as §1, §2, §3

The pIC50 is the IC50 on a negative log10 scale, so that one unit is a factor of ten. Low values mean a high IC50, high ones a low IC50. In the case of `CC(Nc1ncnc2[nH]cc(C#N)c12)c1cc2ncc(Cl)n2nc1-c1ccccc1` (single isomer, unassigned) [Compound 9], the pIC50 against PI3K-β is 6.80; at PI3K-γ (p110γ), 7.34; at PI3K-δ (p110δ/p85α), 8.70.

What is called inhibition is the drop in the measured response relative to a control, in per cent. In the case of `CC(Nc1ncnc2[nH]cnc12)c1cc2ncc(Cl)n2nc1-c1ccccc1` (single isomer, unassigned) [Compound 11], the inhibition at 1 µM on PI3K-β came to 55.7%. Further, the pIC50 against PI3K-γ (p110γ) is 7.03; on PI3K-δ (p110δ/p85α), 8.52.

On to `CCC(Nc1ncnc2[nH]cnc12)c1cc2ncc(Cl)n2nc1-c1ccccc1F` (single isomer, unassigned) [Compound 26], for which the “PI3K-β IH % (inhibition rate)” value at PI3K-β was −7.5%. Moreover, on PI3K-γ (p110γ) (at 1 μM), the inhibition at 1 µM amounted to 8%.

Consider `C[C@H](Nc1ncnc(N)c1C#N)c1cc2ncc(Cl)n2nc1-c1cccc(C(C)(C)O)c1` (single isomer, unassigned) [Compound 79, (chiral)-4-amino-6-((1-(3-chloro-6-(3-(2-hydroxypropan-2-yl)phenyl)imidazo[1,2-b]pyridazin-7-yl)ethyl)amino)pyrimidine-5-carbonitrile], for which, at PI3K-β, the “PI3K-β IH % (inhibition rate)” value is given as 43.8%. The “PI3K-γ IH % (inhibition rate)” value at PI3K-γ (p110γ) (at 1 μM) worked out at 56.2%.

With `CC(Nc1ncnc(N)c1C#N)c1cc2nccn2nc1-c1ccccc1` (stereo not drawn) [Compound 1, 4-amino-6-((1-(6-phenylimidazo[1,2-b]pyridazin-7-yl)ethyl)amino)pyrimidine-5-carbonitrile], the values for the inhibition at 1 µM on PI3K-β and on PI3K-γ (p110γ) were 28.1% and 16.1%, respectively. The pIC50 at PI3K-δ (p110δ/p85α) is 7.55.

Regarding `C[C@@H](Nc1ncnc(N)c1C#N)c1cc2ncc(Cl)n2nc1-c1ccccc1` [Compound 3, (R)-4-amino-6-((1-(3-chloro-6-phenylimidazo[1,2-b]pyridazin-7-yl)ethyl)amino)pyrimidine-5-carbonitrile], on PI3K-γ (p110γ) (at 1 μM), the inhibition at 1 µM was 6.9%.

Take `CC[C@@H](Nc1ncnc(N)c1C#N)c1cc2ncc(Cl)n2nc1-c1ccccc1` [Compound 5, (R)-4-amino-6-((1-(3-chloro-6-phenylimidazo[1,2-b]pyridazin-7-yl)propyl)amino)pyrimidine-5-carbonitrile]: the inhibition at 1 µM at PI3K-β is -10.7%; on PI3K-γ (p110γ) (at 1 μM), 4.1%; on PI3K-δ (p110δ/p85α), 47.3%.

Take `C[C@@H](Nc1ncnc(N)c1C#N)c1cc2ncc(Cl)n2nc1-c1ccccn1` [Compound 7, (R)-4-amino-6-((1-(3-chloro-6-(pyridin-2-yl)imidazo[1,2-b]pyridazin-7-yl)ethyl)amino)pyrimidine-5-carbonitrile]: the inhibition at 1 µM at PI3K-β is -2.7%; on PI3K-γ (p110γ) (at 1 μM), -2.3%; at PI3K-δ (p110δ/p85α), 12.5%.

Regarding `C[C@H](Nc1ncnc(N)c1C#N)c1cc2ncc(Cl)n2nc1-c1ccccc1F` [Compound 12], the results for the pIC50 on PI3K-β, against PI3K-γ (p110γ) and at PI3K-δ (p110δ/p85α) were 7.10, 6.26 and 8.70, respectively.

Consider `CCC(Nc1ncnc2[nH]cnc12)c1cc2ncc(Cl)n2nc1-c1ccccc1` (stereo not drawn) [Compound 14], for which the “PI3K-β IH % (inhibition rate)” value at PI3K-β is 3.2%. For the same molecule, the results for the inhibition at 1 µM on PI3K-γ (p110γ) (at 1 μM) and on PI3K-δ (p110δ/p85α) were 22.5% and 51%, respectively.

For the molecule `CCC(Nc1ncnc(N)c1C#N)c1cc2ncc(Cl)n2nc1-c1ccccn1` (stereo not drawn) [Compound 28], the figures for the inhibition at 1 µM at PI3K-β, at PI3K-γ (p110γ) (at 1 μM) and on PI3K-δ (p110δ/p85α) were 11.1%, 18.8% and 39.8%, respectively.

In the case of `CNc1ncnc(N[C@@H](C)c2cc3ncc(Cl)n3nc2-c2ccccc2)c1C#N` [Compound 33, (S)-4-((1-(3-chloro-6-phenylimidazo[1,2-b]pyridazin-7-yl)ethyl)amino)-6-(methylamino)pyrimidine-5-carbonitrile], the inhibition at 1 µM at PI3K-β was 2.2%; on PI3K-γ (p110γ) (at 1 μM) it was -6.9%. This molecule had a pIC50 against PI3K-δ (p110δ/p85α) of 6.54.

Take `C[C@H](Nc1nc(N)ncc1C#N)c1cc2ncc(Cl)n2nc1-c1ccccc1` [Compound 34]: the values for the inhibition at 1 µM at PI3K-β, at PI3K-γ (p110γ) (at 1 μM) and at PI3K-δ (p110δ/p85α) were 3.7%, -19.3% and 8.3%, respectively.

In the case of `C[C@H](Nc1ncnc(N)c1-c1cccc(F)c1)c1cc2ncc(Cl)n2nc1-c1ccccc1` [Compound 37, (S)—N^4-(1-(3-chloro-6-phenylimidazo[1,2-b]pyridazin-7-yl)ethyl)-5-(3-fluorophenyl)pyrimidine-4,6-diamine], the inhibition at 1 µM at PI3K-β was -0.4%; on PI3K-γ (p110γ) (at 1 μM), 27.5%. The pIC50 on PI3K-δ (p110δ/p85α) was 6.54.

As to `C[C@H](Nc1ncnc(N)c1-c1ccc(O)c(F)c1)c1cc2ncc(Cl)n2nc1-c1ccccc1` [Compound 38], the inhibition at 1 µM at PI3K-β was -2.2%; at PI3K-γ (p110γ) (at 1 μM) it was 54.3%. This molecule had a pIC50 at PI3K-δ (p110δ/p85α) of 7.18.

Take `COc1ccc(-c2c(N)ncnc2N[C@@H](C)c2cc3ncc(Cl)n3nc2-c2ccccc2)cn1` [Compound 39]: the inhibition at 1 µM is -4.4% on PI3K-β and 28.1% at PI3K-γ (p110γ) (at 1 μM). Further, at PI3K-δ (p110δ/p85α), the pIC50 is 7.14.

For the molecule `C[C@@H](c1cc2ncc(Cl)n2nc1-c1ccccc1)N(C)c1ncnc(N)c1C#N` [Compound 42, (S)-4-amino-6-((1-(3-chloro-6-phenylimidazo[1,2-b]pyridazin-7-yl)ethyl)(methyl)amino)pyrimidine-5-carbonitrile], the inhibition at 1 µM was found to be 7.4% at PI3K-β and 18.2% at PI3K-γ (p110γ) (at 1 μM). The pIC50 against PI3K-δ (p110δ/p85α) is 6.47.

As for `CC[C@@H](Nc1ncnc(N)c1C#N)c1cc2ncc(Cl)n2nc1-c1cccc(F)c1` [Compound 43, (R)-4-amino-6-((1-(3-chloro-6-(3-fluorophenyl)imidazo[1,2-b]pyridazin-7-yl)propyl)amino)pyrimidine-5-carbonitrile], the inhibition at 1 µM is 23.6% at PI3K-β and 27.2% on PI3K-γ (p110γ) (at 1 μM). This molecule gave a pIC50 against PI3K-δ (p110δ/p85α) of 6.88.

For `CC[C@@H](Nc1ncnc2[nH]cnc12)c1cc2ncc(Cl)n2nc1-c1cccc(F)c1` [Compound 44], the values for the inhibition at 1 µM on PI3K-β and at PI3K-γ (p110γ) (at 1 μM) were 18.8% and 36%, respectively. For the same molecule, on PI3K-δ (p110δ/p85α), the pIC50 was 6.55.

Consider `CC[C@H](Nc1ncnc2[nH]cnc12)c1cc2ncc(Cl)n2nc1-c1cccc(F)c1` [Compound 47], for which the inhibition at 1 µM on PI3K-β turned out to be 32.2%; on PI3K-γ (p110γ) (at 1 μM) it was 55.2%. Moreover, the pIC50 against PI3K-δ (p110δ/p85α) is 7.74.

Regarding `C[C@H](Nc1ncnc(N)c1C#N)c1cc2ncc(Cl)n2nc1-c1ccc(O)cc1` [Compound 49], the pIC50 is 9.00 on PI3K-β, 6.84 against PI3K-γ (p110γ) and 9.00 against PI3K-δ (p110δ/p85α).

For the molecule `COc1cc(-c2c(N)ncnc2N[C@@H](C)c2cc3ncc(Cl)n3nc2-c2ccccc2)ccn1` [Compound 50], the inhibition at 1 µM at PI3K-β is -14.1%; on PI3K-γ (p110γ) (at 1 μM), 5.5%; at PI3K-δ (p110δ/p85α), 68.9%.

On to `C[C@H](Nc1nc[n+]([O-])c(N)c1C#N)c1cc2ncc(Cl)n2nc1-c1ccccc1` [Compound 51, (S)-6-amino-4-((1-(3-chloro-6-phenylimidazo[1,2-b]pyridazin-7-yl)ethyl)amino)-5-cyanopyrimidine 1-oxide], for which the inhibition at 1 µM was -15.5% on PI3K-β and 36.7% on PI3K-γ (p110γ).

For `C[C@H](Nc1ncnc(N)c1C(=O)O)c1cc2ncc(Cl)n2nc1-c1ccccc1` [Compound 52, (S)-4-amino-6-((1-(3-chloro-6-phenylimidazo[1,2-b]pyridazin-7-yl)ethyl)amino)pyrimidine-5-carboxylic acid], the inhibition at 1 µM is -6.3% at PI3K-β and -26.1% on PI3K-γ (p110γ). On PI3K-δ (p110δ/p85α), this molecule showed a pIC50 of 7.10.

In the case of `C[C@H](Nc1ncnc(N)c1C#N)c1cc2ncc(Cl)n2nc1-c1cccc(O)c1` [Compound 54], the pIC50 at PI3K-β is 8.05; on PI3K-γ (p110γ) it was 6.65; against PI3K-δ (p110δ/p85α), 8.70.

Turning to `C[C@H](Nc1nc(O)nc(N)c1C#N)c1cc2ncc(Cl)n2nc1-c1ccccc1` [Compound 55, (S)-4-amino-6-((1-(3-chloro-6-phenylimidazo[1,2-b]pyridazin-7-yl)ethyl)amino)-2-hydroxypyrimidine-5-carbonitrile], the figures for the inhibition at 1 µM at PI3K-β, on PI3K-γ (p110γ) (at 1 μM) and at PI3K-δ (p110δ/p85α) were 8.5%, -4.7% and 60.3%, respectively.

As for `C[C@H](Nc1ncnc(N)c1C(=O)N(C)C)c1cc2ncc(Cl)n2nc1-c1ccccc1` [Compound 56], the figures for the inhibition at 1 µM on PI3K-β, on PI3K-γ (p110γ) (at 1 μM) and at PI3K-δ (p110δ/p85α) were 9%, 1% and 21%, respectively.

With `C[C@H](Nc1ncnc(N)c1-c1cnn(C)c1)c1cc2ncc(Cl)n2nc1-c1ccccc1` [Compound 57], the figures for the inhibition at 1 µM on PI3K-β and at PI3K-γ (p110γ) (at 1 μM) were 6.3% and 30.3%, respectively. The pIC50 against PI3K-δ (p110δ/p85α) was 7.21.

For `Cc1cn2nc(-c3ccccc3)c([C@H](C)Nc3ncnc(N)c3C#N)cc2n1` [Compound 58], the values for the inhibition at 1 µM on PI3K-β and at PI3K-γ (p110γ) (at 1 μM) were 20.5% and 20.2%, respectively. The molecule also had a pIC50 on PI3K-δ (p110δ/p85α) of 6.86.

As for `C[C@H](Nc1ncnc(N)c1C#N)c1cc2ncc(Cl)n2nc1-c1ccsc1` [Compound 60], the pIC50 was 7.47 at PI3K-β, 7.32 against PI3K-γ (p110γ) and 9.00 on PI3K-δ (p110δ/p85α).

For `C[C@H](Nc1ncnc(N)c1C#N)c1cc2ncc(Cl)n2nc1-c1ccc(F)c(F)c1` [Compound 63], on PI3K-β, the inhibition at 1 µM is 48.1%. Further, the pIC50 is 6.98 on PI3K-γ (p110γ) and 8.22 against PI3K-δ (p110δ/p85α).

As to `C[C@H](Nc1ncnc(N)c1C#N)c1cc2ncc(Cl)n2nc1-c1ccccc1O` [Compound 69, (S)-4-amino-6-((1-(3-chloro-6-(2-hydroxyphenyl)imidazo[1,2-b]pyridazin-7-yl)ethyl)amino)pyrimidine-5-carbonitrile], the pIC50 at PI3K-δ (p110δ/p85α) was 9.00.

As to `C[C@H](Nc1ncnc(N)c1C#N)c1cc2ncc(Cl)n2nc1-c1ccc2c(c1)OCCO2` [Compound 70], the inhibition at 1 µM on PI3K-β came to 37.4%.

Regarding `C[C@H](Nc1ncnc(N)c1C#N)c1cc2ncc(F)n2nc1-c1ccccc1` [Compound 78], the inhibition at 1 µM at PI3K-β was determined as 50.1%.

With `Cc1nnc(-c2c(N)ncnc2N[C@@H](C)c2cc3ncc(Cl)n3nc2-c2ccccc2)o1` [Compound 81, (S)—N^4-(1-(3-chloro-6-phenylimidazo[1,2-b]pyridazin-7-yl)ethyl)-5-(5-methyl-1,3,4-oxadiazol-2-yl)pyrimidine-4,6-diamine], the pIC50 against PI3K-γ (p110γ) was 7.01; on PI3K-δ (p110δ/p85α) it was 8.70.
